Patent US20260083864A1, “CONTRAST AGENTS FOR USE IN DIAGNOSTIC COMPUTED TOMOGRAPHY IMAGING” (Bayer Aktiengesellschaft, priority 2022, published 2026)

Tests used:
OATP1B3 = molecular target: T1, OATP1B3 (Homo sapiens, UniProt Q9NPD5); assay: Uptake into stable transfected OATP1B3 HEK 293 cells; assay type: cell-based; settings: for Uptake into OATP1B3-HEK 293 cells: 40 min incubation, relative to RC1 (Gd-EOB-DTPA); for Inhibition Rifampicine: uptake into OATP1B3-HEK 293 cells
T1 sequence (Q9NPD5 1-702): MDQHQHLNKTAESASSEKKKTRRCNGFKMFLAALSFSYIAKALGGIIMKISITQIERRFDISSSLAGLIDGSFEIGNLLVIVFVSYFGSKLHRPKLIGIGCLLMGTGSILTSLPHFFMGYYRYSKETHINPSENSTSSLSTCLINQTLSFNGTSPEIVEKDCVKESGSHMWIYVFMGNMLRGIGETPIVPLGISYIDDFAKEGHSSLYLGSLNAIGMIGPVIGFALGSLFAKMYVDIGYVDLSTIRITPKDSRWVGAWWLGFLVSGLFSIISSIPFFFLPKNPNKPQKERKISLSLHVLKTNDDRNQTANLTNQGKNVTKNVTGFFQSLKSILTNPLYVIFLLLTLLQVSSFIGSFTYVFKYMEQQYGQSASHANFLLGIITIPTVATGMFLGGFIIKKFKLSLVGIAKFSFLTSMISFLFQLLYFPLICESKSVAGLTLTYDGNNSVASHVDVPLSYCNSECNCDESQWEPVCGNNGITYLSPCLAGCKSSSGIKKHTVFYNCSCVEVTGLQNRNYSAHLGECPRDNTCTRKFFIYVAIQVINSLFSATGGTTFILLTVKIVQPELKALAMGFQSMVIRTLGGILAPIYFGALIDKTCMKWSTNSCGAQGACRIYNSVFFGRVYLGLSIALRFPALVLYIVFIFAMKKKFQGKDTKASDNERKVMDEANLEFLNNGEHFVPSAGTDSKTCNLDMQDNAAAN
Procedure: (§1) Cryopreserved cells were shortly thawed in water bath and diluted in 10 mL warm culture medium (37° C.). After medium change the cells were grown for 3d in a 25 cm^2 cell culture flask. After 3 to 5d the cells were transferred into 75 cm^2 flasks. […] All test items were prepared in transport buffer at a final concentration of 100 µM from stock solutions (180 to 500 mM concentration). The OATP1B3 HEK 293 cells were incubated with test solutions (test item in transport buffer 500 μL) for 40 min on a thermoshaker without shaking (PHMP, Fa. Grant Bio). Triplicates were performed for each test item. After incubation the cells were washed with 2 mL of cold PBS (+) buffer (Dulbeccos PBS+, Fa. Gibco). […] As a reference standard Gd-EOB-DTPA (gadoxetate) is used in the same well plate.

[1] = Water solubility in aqueous buffer; settings: aqueous buffer 10 mM Tris-HCl, pH 7.4, 20° C.
Procedure: The solid compounds were added stepwise to the buffer solution. More substance is added once all the suspended material is dissolved until an equilibrium between undissolved and dissolved substance is reached. The suspension was mixed using a shaker (Heidolph Reax 2000) and treated 5 min in an ultrasound bath (Bandelin, Sonorex Super RK255H).

OATP1B1 = molecular target: T2, OATP1B1 (Homo sapiens, UniProt Q9Y6L6); assay: Uptake into stable transfected OATP1B1 HEK 293 cells; assay type: cell-based; settings: for Uptake into OATP1B1-HEK 293 cells: 40 min incubation, relative to RC1 (Gd-EOB-DTPA); for Inhibition Rifampicine: uptake into OATP1B1-HEK 293 cells
T2 sequence (Q9Y6L6 1-691): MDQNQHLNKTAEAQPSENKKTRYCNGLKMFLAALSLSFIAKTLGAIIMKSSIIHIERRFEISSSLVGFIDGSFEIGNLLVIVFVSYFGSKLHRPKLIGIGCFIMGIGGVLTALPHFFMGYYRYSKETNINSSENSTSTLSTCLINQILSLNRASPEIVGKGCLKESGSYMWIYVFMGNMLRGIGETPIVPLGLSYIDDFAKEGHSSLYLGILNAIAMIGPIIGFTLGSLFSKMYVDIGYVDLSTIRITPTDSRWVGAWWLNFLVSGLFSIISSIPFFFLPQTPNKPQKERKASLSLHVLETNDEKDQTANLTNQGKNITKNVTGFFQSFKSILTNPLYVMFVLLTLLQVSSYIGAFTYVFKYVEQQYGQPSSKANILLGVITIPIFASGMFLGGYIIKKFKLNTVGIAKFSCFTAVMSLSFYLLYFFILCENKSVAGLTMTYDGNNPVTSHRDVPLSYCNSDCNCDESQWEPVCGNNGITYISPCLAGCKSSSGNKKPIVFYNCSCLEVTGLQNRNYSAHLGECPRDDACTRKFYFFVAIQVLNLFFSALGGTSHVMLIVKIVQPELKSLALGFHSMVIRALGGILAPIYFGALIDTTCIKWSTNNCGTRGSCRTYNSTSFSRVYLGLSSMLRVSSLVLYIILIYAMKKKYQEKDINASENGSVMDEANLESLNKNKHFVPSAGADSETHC
Procedure: as §1, with “M” for “µM”, “OATP1B1” for “OATP1B3”, “L)” for “μL)”

[2] = tested on: freshly isolated rat hepatocytes; assay: Uptake into freshly isolated rat hepatocytes; settings: for Uptake rat hepatocytes: 100 μmol Gd/L, 10 min, 37° C., relative to RC1 (Gd-EOB-DTPA); for Inhibition Rifampicine: rat hepatocyte uptake, test item and Rifampicine 1:1, each 100 μM
[3] = Partition coefficient (log P butanol/buffer); assay type: physicochemical; settings: 1-butanol / 50 mM Tris-HCl, pH 7.4, room temperature
[4] = Relaxivity measurements at 1.41 T in human plasma; assay type: physicochemical; settings: 37° C., normalized to Gd
Procedure: (§2) The T1 relaxation times were determined using the standard inversion recovery (IR) method with a fixed relaxation delay of at least 5×T1. The variable inversion time (TI) was calculated automatically by the standard software of the MiniSpec mq60 (8 steps). The T2 measurements were performed by using a Carr-Purcell-Meiboom-Gill (CPMG) pulse sequence, applying a relaxation delay of at least 5×T1.
Each relaxivity measurement was performed using three different Gd concentrations (3 concentrations between 0.05 and 2 mM).
(§3) The relaxivities n (where i=1, 2) were calculated based on the measured relaxation rates Ri in water and plasma: […]

[5] = Relaxivity measurements at 1.41 T in water; assay type: physicochemical; settings: 37° C., normalized to Gd
Procedure: as §2, with “Relaxivity measurements at 1.41 T were performed using a MiniSpec mq60 spectrometer (Bruker Analytik, Karlsruhe, Germany) operating at a resonance frequency of 60 MHz and a temperature of 37° C. The T1” for “The T1”
Each relaxivity measurement was performed using three different Gd concentrations (3 concentrations between 0.05 and 2 mM). […] Human plasma preparation: For each experiment fresh blood was taken from a volunteer using 10 mL citrate-tubes (Sarstedt S-Monovette 02.1067.001, 10 mL, Citrate). The 10 mL citrate-tubes were carefully inverted 10 times to mix blood and anticoagulant and centrifuged for 15 min at 1811 g at RT (Eppendorf, Centrifuge 5810R).
as §3

| SMILES | Uptake into OATP1B3-HEK 293 cells (OATP1B3) | Inhibition Rifampicine (OATP1B3) | Solubility [1] | Uptake into OATP1B1-HEK 293 cells (OATP1B1) | Inhibition Rifampicine (OATP1B1) | Uptake rat hepatocytes [2] | Inhibition Rifampicine [2] | Log P (partition coefficient butanol/buffer) [3] | r1 human plasma [4] | r1 water [5] |
| --- | --- | --- | --- | --- | --- | --- | --- | --- | --- | --- |
| CCCCOc1ccc(CCCC[C@@H](C(=O)O)N2CCN([C@@H](CO)C(=O)[O-])CCN([C@@H](CO)C(=O)[O-])CCN([C@@H](CO)C(=O)[O-])CC2)cc1.[Gd+3] [Example 9, gadolinium (2S,2′S,2″S)-2,2′,2″-{10-[(1S)-5-(4-butoxyphenyl)-1-carboxypentyl]-1,4,7,10-tetraazacyclododecane-1,4,7-triyl}tris(3-hydroxypropanoate)] | 124 % of RC1 | 95 % inhibition | 2 mM | 498 % of RC1 | 73 % inhibition | 54 % of RC1 | 46 % inhibition | 0.26 |  |  |
| CCOCCOCCOCCOc1ccc(C[C@@H](C(=O)O)N2CCN(CC(=O)[O-])CCN(CC(=O)[O-])CCN(CC(=O)[O-])CC2)cc1.[Gd+3] [Example 11, gadolinium 2,2′,2″-{10-[(1S)-1-carboxy-2-(4-{2-[2-(2-ethoxyethoxy)ethoxy]ethoxy}phenyl)ethyl]-1,4,7,10-tetraazacyclododecane-1,4,7-triyl}triacetate] | 16 % of RC1 | 73 % inhibition |  | 154 % of RC1 | 40 % inhibition | 39 % of RC1 | 93 % inhibition | −1.68 | 6.3 L/mmol/s | 4.3 L/mmol/s |
| CCOCCOCCOCCOc1ccc(C[C@H](C(=O)O)N2CCN(CC(=O)[O-])CCN(CC(=O)[O-])CCN(CC(=O)[O-])CC2)cc1.[Gd+3] [Example 12, gadolinium 2,2′,2″-{10-[(1R)-1-carboxy-2-(4-{2-[2-(2-ethoxyethoxy)ethoxy]ethoxy}phenyl)ethyl]-1,4,7,10-tetraazacyclododecane-1,4,7-triyl}triacetate] | 24 % of RC1 | 87 % inhibition |  | 86 % of RC1 | 0 % inhibition | 53 % of RC1 | 97 % inhibition | −1.68 | 6.6 L/mmol/s | 4.3 L/mmol/s |
| CCOc1ccc(CCCC[C@@H](C(=O)O)N2CCN(CC(=O)[O-])CCN(CC(=O)[O-])CCN(CC(=O)[O-])CC2)cc1.[Gd+3] [Example 27, gadolinium 2,2′,2″-{10-[(1S)-1-carboxy-5-(4-ethoxyphenyl)pentyl]-1,4,7,10-tetraazacyclo-dodecane-1,4,7-triyl}triacetate] | 24 % of RC1 | 96 % inhibition | >9 mM | 284 % of RC1 | 93 % inhibition | 69 % of RC1 | 98 % inhibition | −0.41 |  |  |
| CCOCCOCCOCCOc1ccc(C[C@@H](C(=O)O)N2CCN(CC(=O)[O-])CCN(CC(=O)[O-])CCN(CC(=O)[O-])CC2)c(OCCOCCOCCOCC)c1.[Gd+3] [Example 40, gadolinium 2,2′,2″-{10-[(1S)-2-(2,4-bis {2-[2-(2-ethoxyethoxy)ethoxy]ethoxy}phenyl)-1-carboxyethyl]-1,4,7,10-tetraazacyclododecane-1,4,7-triyl}triacetate] |  |  |  |  |  | 20 % of RC1 | 88 % inhibition | −1.43 | 7.3 L/mmol/s | 5.4 L/mmol/s |
| CCOCCOCCOc1ccc(CCC[C@@H](C(=O)O)N2CCN([C@H](CO)C(=O)[O-])CCN([C@H](CO)C(=O)[O-])CCN([C@@H](CO)C(=O)[O-])CC2)cc1.[Gd+3] [Example 49, gadolinium (2R,2′R)-2,2′-{7-[(1S)-1-carboxy-4-{4-[2-(2-ethoxyethoxy)ethoxy]phenyl}butyl]-10-[(1S)-1-carboxylato-2-hydroxyethyl]-1,4,7,10-tetraazacyclododecane-1,4-diyl}bis(3-hydroxypropanoate)] |  | 94 % inhibition | >18 mM |  | 71 % inhibition |  |  |  |  |  |
| CCOCCOCCOc1ccc(CCC[C@@H](C(=O)O)N2CCN([C@H](CO)C(=O)[O-])CCN([C@@H](CO)C(=O)[O-])CCN([C@@H](CO)C(=O)[O-])CC2)cc1.[Gd+3] [Example 50, gadolinium (2S,2'S)-2,2′-{7-[(1S)-1-carboxy-4-{4-[2-(2-ethoxyethoxy)ethoxy]phenyl}butyl]-10-[(1R)-1-carboxylato-2-hydroxyethyl]-1,4,7,10-tetraazacyclododecane-1,4-diyl}bis(3-hydroxypropanoate)] |  | 93 % inhibition | >19 mM |  | 84 % inhibition |  |  |  |  |  |
